Results as given in PubChem BioAssay (NCI).
Several values for one entry are separate records, joined by “and”; a condition that tells them apart may be missing. Equal values may be shown once.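 Following 48 hours of exposure in 96-well plates, responses at five concentrations were used to interpolate endpoints linearly. GI50 = concentration required for 50% inhibition of growth. Definition used: TGI = concentration required for complete inhibition of growth.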

Legend:
Test in all cases: growth of human tumour cells (NCI), 48 h
MDA-MB-231 breast = system: MDA-MB-231 breast
HS 578T breast = system: HS 578T breast
PC-3 prostate = system: PC-3 prostate
T-47D breast = system: T-47D breast
LXFL 529 NSCLC = system: LXFL 529 NSCLC
MDA-N = system: MDA-N

Cc1ncc(C(=O)Nc2ccc(CN3CCN(C)CC3)c(C(F)(F)F)c2)cc1C#Cc1cnc(NC2CC2)c2ncccc12 showed a GI50 (MDA-MB-231 breast) of 0.582 µM, a TGI (MDA-MB-231 breast) of 1.12 µM and a GI50 (HS 578T breast) of 1.19 µM. For the same compound, the TGI (HS 578T breast) was 4.44 µM, the GI50 (PC-3 prostate) was 0.597 µM and the TGI (PC-3 prostate) was 1.17 µM. The GI50 (T-47D breast) was 5.68 µM and the TGI (T-47D breast) was 13.5 µM.

With CCN(CC)CCNC(=O)c1c(C)[nH]c(/C=C2\C(=O)Nc3ccc(F)cc32)c1C the GI50 (MDA-MB-231 breast) was 7.2 µM and 3.26 µM and 3.52 µM, the TGI (MDA-MB-231 breast) was > 10 µM and 6.68 µM and 14.5 µM and the GI50 (HS 578T breast) was 3.01 µM and 3.57 µM and 2.4 µM. The TGI (HS 578T breast) was > 10 µM and 17.7 µM and 15.3 µM, the GI50 (PC-3 prostate) was 1.84 µM and 3.82 µM and 2.9 µM and the TGI (PC-3 prostate) was > 10 µM and 20 µM and 14.5 µM. The GI50 (T-47D breast) was > 10 µM and > 20 µM and 15.9 µM and the TGI (T-47D breast) was > 10 µM and > 20 µM and 35.3 µM.

In the case of CCOC(=O)/C(=C/c1cccc(OC)c1)N(CC)CC, the TGI (LXFL 529 NSCLC) was > 100 µM.

With O=S1(=O)NCCCN1CCNc1nccc(-c2c(-c3cccc(O)c3)nc3sccn23)n1 the GI50 (MDA-MB-231 breast) was 16.1 µM, the TGI (MDA-MB-231 breast) was > 100 µM and the GI50 (HS 578T breast) was 10.8 µM. For the same compound, the TGI (HS 578T breast) was > 81.4 µM, the GI50 (PC-3 prostate) was 45 µM and the TGI (PC-3 prostate) was > 100 µM. For the same compound, the GI50 (T-47D breast) was 23.3 µM and the TGI (T-47D breast) was > 100 µM.

O=C(NC12CC3CC(CC(C3)C1)C2)C(=O)c1c[nH]c2ccc(Cl)cc12 was tested, and the TGI (LXFL 529 NSCLC) was > 100 µM.

In the case of C=C1CC2(OC1=O)C(=O)N(CCCN1C(=O)C3(CC(=C)C(=O)O3)c3ccccc31)c1ccccc12 (configuration not stated), the GI50 (MDA-MB-231 breast) was 1.65 µM, the TGI (MDA-MB-231 breast) was 3.43 µM and the GI50 (HS 578T breast) was 3.43 µM. The TGI (HS 578T breast) was 51.5 µM, the GI50 (PC-3 prostate) was 2.79 µM and the TGI (PC-3 prostate) was 10.3 µM.

Work on CCCCCCCCCCCC[n+]1ccccc1 (tested in a mixture with another compound) yielded a GI50 (MDA-MB-231 breast) of 1.22 µM, a TGI (MDA-MB-231 breast) of 3.37 µM and a GI50 (HS 578T breast) of 1.71 µM. For the same compound, the TGI (HS 578T breast) was 5.15 µM, the GI50 (PC-3 prostate) was 0.208 µM and the TGI (PC-3 prostate) was 0.937 µM. For the same compound, the GI50 (T-47D breast) was 0.375 µM and the TGI (T-47D breast) was 3.94 µM.

In the case of C=CCSc1nc2ccccc2c(=O)n1Cc1ccco1, the TGI (MDA-MB-231 breast) was > 100 µM, the TGI (HS 578T breast) was > 100 µM and the TGI (MDA-N) was > 100 µM. For the same compound, the TGI (PC-3 prostate) was > 100 µM and the TGI (T-47D breast) was > 100 µM.

Work on CCCCCCCCCCN=C(c1ccc(N(C)C)cc1)c1ccc(N(C)C)cc1 yielded a GI50 (MDA-MB-231 breast) of 0.876 µM, a TGI (MDA-MB-231 breast) of 23.9 µM and a GI50 (HS 578T breast) of 1.02 µM. The TGI (HS 578T breast) was 39.1 µM, the GI50 (PC-3 prostate) was 2.71 µM and the TGI (PC-3 prostate) was > 86 µM. For the same compound, the GI50 (T-47D breast) was 0.6 µM and the TGI (T-47D breast) was > 54 µM.

In the case of Cc1cc(Nc2nc(SCc3ccc(C(=O)Nc4ccc(F)cc4N)cc3)nn3cccc23)n[nH]1, the GI50 (MDA-MB-231 breast) was 0.854 µM, the TGI (MDA-MB-231 breast) was > 100 µM and the GI50 (HS 578T breast) was 0.429 µM. For the same compound, the TGI (HS 578T breast) was > 100 µM, the GI50 (PC-3 prostate) was 0.355 µM and the TGI (PC-3 prostate) was 44.2 µM. The GI50 (T-47D breast) was 1.12 µM and the TGI (T-47D breast) was 52.6 µM.

In the case of CC1CCCc2c1nn(C(=O)/C=C(\N)c1ccccc1)c2N (configuration not stated), the GI50 (MDA-MB-231 breast) was 28.3 µM, the TGI (MDA-MB-231 breast) was > 100 µM and the GI50 (HS 578T breast) was 22.4 µM. For the same compound, the TGI (HS 578T breast) was > 100 µM, the GI50 (PC-3 prostate) was 6.54 µM and the TGI (PC-3 prostate) was > 100 µM. The GI50 (T-47D breast) was 3.71 µM and the TGI (T-47D breast) was 95.1 µM.

Work on CCCCCCCCCCCCCCCCCCNC(=O)[C@H]1CSC(c2cccs2)N1 (some centres not stated) yielded a GI50 (MDA-MB-231 breast) of 0.826 µM, a TGI (MDA-MB-231 breast) of 1.59 µM and a GI50 (HS 578T breast) of 1.17 µM. The TGI (HS 578T breast) was 2.98 µM, the GI50 (PC-3 prostate) was 1.75 µM and the TGI (PC-3 prostate) was > 50 µM. It also gave a GI50 (T-47D breast) of 0.892 µM and a TGI (T-47D breast) of 1.84 µM.

Compound CCC(=C(c1ccc(OCCCN(C)C)cc1)c1ccc(OCCCN(C)C)cc1)c1ccc(Cl)cc1 has a GI50 (MDA-MB-231 breast) of 0.413 µM, a TGI (MDA-MB-231 breast) of 1.07 µM and a GI50 (HS 578T breast) of 2.3 µM. It also gave a TGI (HS 578T breast) of 5.35 µM, a GI50 (PC-3 prostate) of 1.09 µM and a TGI (PC-3 prostate) of 3.39 µM. It also gave a GI50 (T-47D breast) of 0.86 µM and a TGI (T-47D breast) of 3.16 µM.

For CN(C)Cc1c[nH]c2c(NCCN)c3c(c(NCCN)c12)C(=O)c1ccccc1C3=O, the GI50 (MDA-MB-231 breast) was 0.949 µM, the TGI (MDA-MB-231 breast) was 2.86 µM and the GI50 (HS 578T breast) was 3.38 µM. It also gave a TGI (HS 578T breast) of 10.9 µM, a GI50 (PC-3 prostate) of 2.34 µM and a TGI (PC-3 prostate) of 8.42 µM. The GI50 (T-47D breast) was 1.82 µM and the TGI (T-47D breast) was 14 µM.

For OC(CN1CC1)C(O)CN1CC1 (configuration not stated), the GI50 (MDA-MB-231 breast) was > 50 µg/mL, the TGI (MDA-MB-231 breast) was > 50 µg/mL and the GI50 (HS 578T breast) was > 50 µg/mL. For the same compound, the TGI (HS 578T breast) was > 50 µg/mL, the GI50 (MDA-N) was > 50 µg/mL and the TGI (MDA-N) was > 50 µg/mL. For the same compound, the GI50 (PC-3 prostate) was > 50 µg/mL, the TGI (PC-3 prostate) was > 50 µg/mL and the GI50 (T-47D breast) was > 50 µg/mL. For the same compound, the TGI (T-47D breast) was > 50 µg/mL.

With Cn1c2ccccc2c2c(=O)c3ccccc3[nH]c21 the GI50 (MDA-MB-231 breast) was 87.1 µM, the TGI (MDA-MB-231 breast) was > 100 µM and the GI50 (HS 578T breast) was > 100 µM. For the same compound, the TGI (HS 578T breast) was > 100 µM, the GI50 (PC-3 prostate) was 27.5 µM and the TGI (PC-3 prostate) was 73.2 µM.

COc1ccccc1/C=C/C(=O)/C=C/c1ccccc1O showed a GI50 (MDA-MB-231 breast) of 1.67 µM, a TGI (MDA-MB-231 breast) of 4.26 µM and a GI50 (HS 578T breast) of 2.25 µM. For the same compound, the TGI (HS 578T breast) was 11.7 µM, the GI50 (PC-3 prostate) was 0.539 µM and the TGI (PC-3 prostate) was 2.75 µM. It also gave a GI50 (T-47D breast) of 0.488 µM and a TGI (T-47D breast) of 4.52 µM.

With CNC(=O)c1cc2c(Oc3ccc(NC(=O)C4(C(=O)Nc5ccc(F)cc5)CC4)cc3)ccnc2cc1OC the GI50 (MDA-MB-231 breast) was 2.41 µM, the TGI (MDA-MB-231 breast) was > 100 µM and the GI50 (HS 578T breast) was 1.11 µM. The TGI (HS 578T breast) was 4.69 µM, the GI50 (PC-3 prostate) was 3.09 µM and the TGI (PC-3 prostate) was > 100 µM. The GI50 (T-47D breast) was 2.71 µM and the TGI (T-47D breast) was 16.3 µM.

CCN(CC)CCNC(=O)c1cn2ncnc(Oc3ccc(NC(=O)Nc4ccc(Cl)c(C(F)(F)F)c4)c(F)c3)c2c1C gave a GI50 (MDA-MB-231 breast) of 1.63 µM, a TGI (MDA-MB-231 breast) of 3.28 µM and a GI50 (HS 578T breast) of 1.52 µM. It also gave a TGI (HS 578T breast) of 4.29 µM, a GI50 (PC-3 prostate) of 1.53 µM and a TGI (PC-3 prostate) of 3.3 µM. It also gave a GI50 (T-47D breast) of 1.83 µM and a TGI (T-47D breast) of 4 µM.

For O=c1c2c3c(sc2n2c(-c4cc(-c5ccccc5)nn4-c4ccccc4)nnc2n1Cc1ccccc1)CCCC3, the GI50 (MDA-MB-231 breast) was > 100 µM, the TGI (MDA-MB-231 breast) was > 100 µM and the GI50 (HS 578T breast) was 48 µM. The TGI (HS 578T breast) was > 100 µM, the GI50 (PC-3 prostate) was > 100 µM and the TGI (PC-3 prostate) was > 100 µM. The GI50 (T-47D breast) was > 100 µM and the TGI (T-47D breast) was > 100 µM.

With C=CCOC(=O)CC[N+]1=CCC(c2ccccc2)(c2ccccc2)O1 the TGI (MDA-MB-231 breast) was > 100 µM, the TGI (HS 578T breast) was > 100 µM and the TGI (MDA-N) was > 100 µM. For the same compound, the TGI (PC-3 prostate) was > 100 µM and the TGI (T-47D breast) was > 100 µM.

With CCSc1nc(N)c2cn[nH]c2n1 the GI50 (MDA-MB-231 breast) was 20.2 µM, the TGI (MDA-MB-231 breast) was 69.8 µM and the GI50 (HS 578T breast) was 22.2 µM. It also gave a TGI (HS 578T breast) of 70.1 µM, a GI50 (PC-3 prostate) of 19.8 µM and a TGI (PC-3 prostate) of 63.5 µM. For the same compound, the GI50 (T-47D breast) was 17.6 µM and the TGI (T-47D breast) was 56.4 µM.

Cc1nc(Nc2n[nH]c3c2CN(C(=O)N[C@H](CN(C)C)c2ccccc2)C3(C)C)c2sccc2n1 was tested, and the GI50 (MDA-MB-231 breast) was 0.0856 µM and 0.0341 µM, the TGI (MDA-MB-231 breast) was 1.98 µM and 1.95 µM and the GI50 (HS 578T breast) was 0.144 µM and 0.469 µM. The TGI (HS 578T breast) was > 5.44 µM and 14.7 µM, the GI50 (PC-3 prostate) was 0.242 µM and 0.041 µM and the TGI (PC-3 prostate) was > 6.33 µM and 9.76 µM. The GI50 (T-47D breast) was 0.0942 µM and 0.562 µM and the TGI (T-47D breast) was 5.47 µM and 8.67 µM.
